{"source": "paper PMC2798597", "about": "(Biochemical pharmacology, 2009)", "key": {"MCF-7": {"test_system": "MCF-7", "assay": "MTT cytotoxicity / MDR reversal", "format": "cell-based, human", "conditions": "for fold-reversal: no FG020326 (reference)"}, "KB": {"test_system": "KB", "assay": "MTT cytotoxicity / MDR reversal", "format": "cell-based, human", "conditions": "for IC50: Homo sapiens, KB, read-out: IC50 ± SD; for fold-reversal: KB cells, drug alone, no FG020326 (reference)"}, "SW1573": {"test_system": "SW1573", "assay": "MTT cytotoxicity / MDR reversal", "format": "cell-based, human"}, "MCF-7/adr (ABCB1)": {"test_system": "MCF-7/adr (ABCB1)", "assay": "MTT cytotoxicity / MDR reversal", "format": "cell-based, human", "conditions": "for IC50: Homo sapiens, NCI/ADR-RES, read-out: IC50 ± SD; for fold-reversal: MCF-7/adr cells, drug alone, no FG020326 (reference)"}, "KBv200 (ABCB1)": {"test_system": "KBv200 (ABCB1)", "assay": "MTT cytotoxicity / MDR reversal", "format": "cell-based, human", "conditions": "for IC50: Homo sapiens, KBv200, read-out: IC50 ± SD; for fold-reversal: KBv200 cells, drug alone, no FG020326 (reference)"}, "SW1573/2R120 (LRP)": {"test_system": "SW1573/2R120 (LRP)", "assay": "MTT cytotoxicity / MDR reversal", "format": "cell-based, human"}, "KBv200 cell xenografts": {"test_system": "KBv200 cell xenografts", "assay": "MDR human carcinoma xenograft model", "format": "in vivo, athymic nude mice"}, "[1]": {"assay": "Paclitaxel plasma levels / pharmacokinetics in mice", "format": "in vivo, NIH mice", "conditions": "for AUC(0-t): AUC0→ 12, paclitaxel 18 mg/kg i.v."}, "S1": {"test_system": "S1", "assay": "MTT cytotoxicity / MDR reversal", "format": "cell-based"}, "S1-M1-80 (ABCG2)": {"test_system": "S1-M1-80 (ABCG2)", "assay": "MTT cytotoxicity / MDR reversal", "format": "cell-based"}, "NIH3T3/MRP-4-2 (ABCC4)": {"test_system": "NIH3T3/MRP-4-2 (ABCC4)", "assay": "MTT cytotoxicity / MDR reversal", "format": "cell-based, murine"}, "KB-CV60 (ABCC1)": {"test_system": "KB-CV60 (ABCC1)", "assay": "MTT cytotoxicity / MDR reversal", "format": "cell-based, human"}, "NIH3T3": {"test_system": "NIH3T3", "assay": "MTT cytotoxicity / MDR reversal", "format": "cell-based, murine"}, "KB-3-1": {"test_system": "KB-3-1", "assay": "MTT cytotoxicity / MDR reversal", "format": "cell-based, human"}, "[2]": {"conditions": "Homo sapiens, MCF7, read-out: IC50 ± SD"}, "[3]": {"conditions": "Homo sapiens, SW1573, read-out: IC50 ± SD"}, "[4]": {"conditions": "paclitaxel experiment, paclitaxel 18 mg/kg i.p. q5d×3, FG020326 100 mg/kg p.o."}, "[5]": {"conditions": "Mus musculus, NIH3T3, read-out: IC50 ± SD"}, "[6]": {"conditions": "VCR experiment, VCR 0.2 mg/kg i.p. q2d×6, FG020326 100 mg/kg p.o. q2d×6"}}, "note": "Where two headings read alike, the source gives them in different places.", "data": [{"compound": "N.N.[Cl][Pt][Cl]", "note": "[Cisplatin, cisplatin, reference compound]", "values": [{"measurement": "IC50", "setting": "MCF-7; read-out: IC50 ± SD, MCF-7 cells, drug alone, no FG020326", "value": "3550 ± 213", "unit": "nM"}]}, {"compound": "COc1cccc2c1C(=O)c1c(O)c3c(c(O)c1C2=O)C[C@@](O)(C(=O)CO)C[C@@H]3O[C@H]1C[C@H](N)[C@H](O)[C@H](C)O1", "note": "[Doxorubicin, doxorubicin, reference compound]", "values": [{"measurement": "IC50", "setting": "KB", "value": "20 ± 10", "unit": "nM"}, {"measurement": "fold-reversal", "setting": "KB", "value": "(1.0) fold"}, {"measurement": "IC50", "setting": "MCF-7; [2]", "value": "81 ± 10", "unit": "nM"}, {"measurement": "fold-reversal", "setting": "MCF-7; MCF-7 cells, drug alone", "value": "(1.0) fold"}, {"measurement": "IC50", "setting": "SW1573; [3]", "value": "116 ± 24", "unit": "nM"}, {"measurement": "fold-reversal", "setting": "SW1573; SW1573 cells, drug alone, no FG020326 (reference)", "value": "(1.0) fold"}, {"measurement": "IC50", "setting": "MCF-7/adr (ABCB1)", "value": "14300 ± 1420", "unit": "nM"}, {"measurement": "fold-reversal", "setting": "MCF-7/adr (ABCB1)", "value": "(1.0) fold"}, {"measurement": "IC50", "setting": "KBv200 (ABCB1)", "value": "979 ± 123", "unit": "nM"}, {"measurement": "fold-reversal", "setting": "KBv200 (ABCB1)", "value": "(1.0) fold"}, {"measurement": "IC50", "setting": "SW1573/2R120 (LRP); [3]", "value": "1540 ± 279", "unit": "nM"}, {"measurement": "fold-reversal", "setting": "SW1573/2R120 (LRP); SW1573/2R120 cells, drug alone, no FG020326 (reference)", "value": "(1.0) fold"}]}, {"compound": "CC(=O)O[C@H]1C(=O)[C@@]2(C)[C@H]([C@H](OC(=O)c3ccccc3)[C@]3(O)C[C@H](OC(=O)[C@H](O)[C@@H](NC(=O)c4ccccc4)c4ccccc4)C(C)=C1C3(C)C)[C@]1(OC(C)=O)CO[C@@H]1C[C@@H]2O", "note": "[Paclitaxel]", "values": [{"measurement": "IC50", "setting": "KB", "value": "1.38 ± 0.148", "unit": "nM"}, {"measurement": "fold-reversal", "setting": "KB", "value": "(1.0) fold"}, {"measurement": "IC50", "setting": "MCF-7; [2]", "value": "6.91 ± 0.903", "unit": "nM"}, {"measurement": "fold-reversal", "setting": "MCF-7; MCF-7 cells, drug alone", "value": "(1.0) fold"}, {"measurement": "IC50", "setting": "MCF-7/adr (ABCB1)", "value": "340 ± 38.7", "unit": "nM"}, {"measurement": "fold-reversal", "setting": "MCF-7/adr (ABCB1)", "value": "(1.0) fold"}, {"measurement": "Growth Inhibition", "setting": "KBv200 cell xenografts; [4]", "value": 8.1, "unit": "%"}, {"measurement": "Post-experiment Weight (body weight)", "setting": "KBv200 cell xenografts; [4]", "value": "24.4 ± 2.6", "unit": "g"}, {"measurement": "Weight of tumor", "setting": "KBv200 cell xenografts; [4]", "value": "2.06 ± 1.06", "unit": "g"}, {"measurement": "IC50", "setting": "KBv200 (ABCB1)", "value": "48.3 ± 4.12", "unit": "nM"}, {"measurement": "fold-reversal", "setting": "KBv200 (ABCB1)", "value": "(1.0) fold"}, {"measurement": "AUC(0-t)", "setting": "[1]; both, NIH, mouse, plasma, iv, 18 mg/kg, with FG020326 100 mg/kg p.o.", "value": "69400 ± 2260", "unit": "ng·h/mL"}, {"measurement": "AUC(0-t)", "setting": "[1]; both, NIH, mouse, plasma, iv, 18 mg/kg, without FG020326", "value": "73600 ± 5580", "unit": "ng·h/mL"}, {"measurement": "AUC(0-inf)", "setting": "[1]; both, NIH, mouse, plasma, iv, 18 mg/kg, AUC0→ ∞, paclitaxel 18 mg/kg i.v., without FG020326", "value": "73700 ± 5570", "unit": "ng·h/mL"}, {"measurement": "clearance", "setting": "[1]; both, NIH, mouse, plasma, iv, 18 mg/kg, CL, paclitaxel 18 mg/kg i.v., without FG020326", "value": 0.0888, "unit": "mL/min"}, {"measurement": "MRT", "setting": "[1]; both, NIH, mouse, plasma, iv, 18 mg/kg, MRT, paclitaxel 18 mg/kg i.v., without FG020326", "value": "1.54 ± 0.02", "unit": "h"}, {"measurement": "half-life", "setting": "[1]; both, NIH, mouse, plasma, iv, 18 mg/kg, T1/2β, paclitaxel 18 mg/kg i.v., with FG020326 100 mg/kg p.o.", "value": "1.42 ± 0.08", "unit": "h"}, {"measurement": "Vd", "setting": "[1]; both, NIH, mouse, plasma, iv, 18 mg/kg, Vd, paclitaxel 18 mg/kg i.v., without FG020326", "value": "0.0124 ± 0.0011", "unit": "L"}, {"measurement": "T1/2α", "setting": "[1]; paclitaxel 18 mg/kg i.v., without FG020326", "value": "0.55 ± 0.04", "unit": "h"}]}, {"compound": "CC[C@@]1(O)C(=O)OCc2c1cc1n(c2=O)Cc2cc3c(CN(C)C)c(O)ccc3nc2-1", "note": "[Topotecan, topotecan]", "values": [{"measurement": "fold-reversal", "setting": "S1; S1 cells, drug alone, no FG020326 (reference)", "value": "(1.0) fold"}, {"measurement": "IC50", "setting": "S1; read-out: IC50 ± SD", "value": "84 ± 24", "unit": "nM"}, {"measurement": "IC50", "setting": "S1-M1-80 (ABCG2); Homo sapiens, S1-M1-80, read-out: IC50 ± SD", "value": "12000 ± 1280", "unit": "nM"}, {"measurement": "fold-reversal", "setting": "S1-M1-80 (ABCG2); S1-M1-80 cells, drug alone, no FG020326 (reference)", "value": "(1.0) fold"}, {"measurement": "fold resistance", "setting": "S1-M1-80 (ABCG2); S1-M1-80 compared with S1 cells", "value": 143.2, "unit": "fold"}]}, {"compound": "CC[C@]1(O)C[C@H]2CN(CCc3c([nH]c4ccccc34)[C@@](C(=O)OC)(c3cc4c(cc3OC)N(C=O)[C@H]3[C@@](O)(C(=O)OC)[C@H](OC(C)=O)[C@]5(CC)C=CCN6CC[C@]43[C@@H]65)C2)C1", "note": "[Vincristine, vincristine]", "values": [{"measurement": "IC50", "setting": "KB", "value": "28 ± 9", "unit": "nM"}, {"measurement": "fold-reversal", "setting": "KB", "value": "(1.0) fold"}, {"measurement": "IC50", "setting": "MCF-7; [2]", "value": "59 ± 9", "unit": "nM"}, {"measurement": "fold-reversal", "setting": "MCF-7; MCF-7 cells, drug alone", "value": "(1.0) fold"}, {"measurement": "IC50", "setting": "NIH3T3/MRP-4-2 (ABCC4); [5]", "value": "7250 ± 779", "unit": "nM"}, {"measurement": "fold-reversal", "setting": "NIH3T3/MRP-4-2 (ABCC4); NIH3T3/MRP-4-2 cells, drug alone, no FG020326 (reference)", "value": "(1.0) fold"}, {"measurement": "IC50", "setting": "MCF-7/adr (ABCB1)", "value": "4020 ± 656", "unit": "nM"}, {"measurement": "fold-reversal", "setting": "MCF-7/adr (ABCB1)", "value": "(1.0) fold"}, {"measurement": "IC50", "setting": "KB-CV60 (ABCC1); Homo sapiens, KB-CV60, read-out: IC50 ± SD", "value": "88600 ± 8280", "unit": "nM"}, {"measurement": "fold-reversal", "setting": "KB-CV60 (ABCC1); KB-CV60 cells, drug alone, no FG020326 (reference)", "value": "(1.0) fold"}, {"measurement": "Post-experiment Weight (body weight)", "setting": "KBv200 cell xenografts; [6]", "value": "25.6 ± 1.9", "unit": "g"}, {"measurement": "Weight of tumor", "setting": "KBv200 cell xenografts; [6]", "value": "2.92 ± 0.94", "unit": "g"}, {"measurement": "IC50", "setting": "KBv200 (ABCB1)", "value": "1320 ± 256", "unit": "nM"}, {"measurement": "fold-reversal", "setting": "KBv200 (ABCB1)", "value": "(1.0) fold"}, {"measurement": "IC50", "setting": "NIH3T3; [5]", "value": "324 ± 24", "unit": "nM"}, {"measurement": "fold-reversal", "setting": "NIH3T3; NIH3T3 cells, drug alone, no FG020326 (reference)", "value": "(1.0) fold"}, {"measurement": "IC50", "setting": "KB-3-1; Homo sapiens, KB 3-1, read-out: IC50 ± SD", "value": "7260 ± 724", "unit": "nM"}, {"measurement": "fold-reversal", "setting": "KB-3-1; KB-3-1 cells, drug alone, no FG020326 (reference)", "value": "(1.0) fold"}]}]}
